{"source": "patent US6350769B1", "about": "(The Regents of the University of California, priority 1999, dated 2002)", "key": {"[1]": {"tested_on": "lymph node mononuclear cells from GADp35 immunized NOD mice", "assay": "IL-2 production by antigen stimulated T cells (CTLL proliferation readout)", "type": "cell-based", "settings": "GADp35 at 2, 7 and 20 micromolar; 36 hours; different concentrations of GABA", "protocol": "The IL-2 activity in supernatant was determined by IL-2-dependent CTLL proliferation. The data are expressed as IL-2 units/ml±SD.\n(§1) Mice (6-8 weeks in age) were injected with 20 nM GADp35 peptide in 50% complete Freund's adjuvant (CFA, Gibco) in their hind food-pad. […] The supernatant of the cultured cells was harvested and the activity of IL-2 was measured using the IL-2-dependent cell line CTLL-2. Recombinant mouse IL-2 (Genzyme) was used as a standard."}, "[2]": {"tested_on": "CTLL-2 cells", "assay": "control CTLL-2 cell response to recombinant murine IL-2", "type": "cell-based, mouse", "settings": "10 μM-10 mM", "protocol": "as §1"}, "[3]": {"tested_on": "splenic T cell", "assay": "anti-CD3 stimulated splenic T cell proliferation (3H-thymidine incorporation)", "type": "cell-based, Balb/c mice", "protocol": "During the last 8 hours of incubation, ^3H-thymidine (1 μCi/well) was added into each well to determine T cell proliferation. […] The background level of ^3H-thymidine incorporation in medium alone was 1,965-2,400 cpm. Groups of 5-6 mice were tested in two independent experiments.\nThe data are presented as the mean percent ^3H-thymidine incorporation relative to the positive control from groups of 5-6 mice which were tested in 2-3 independent experiments."}, "[4]": {"tested_on": "NOD mice", "assay": "antigen-primed DTH response (KLH footpad swelling)", "type": "in vivo", "protocol": "The next day, the mice were immunized with KLH in 50% CFA at the base of their tail. One week later, the mice were challenged with KLH in PBS in their right footpad, while the left footpad received ovalbumin in PBS as a control. Footpad swelling was expressed as the average size increase of the KLH injected footpad compared to the control footpad±SD (n=5 mice/group, *p<0.005, **p<0.002, ***p<0.001).\nThe next day, the mice were immunized with 100 μg keyhole limpet hemocyanin (KLH, Sigma), a prototypic foreign antigen, in 50% CFA at the base of their tail. One week later, the mice were challenged with KLH (100 μg in 25 μl PBS) in their right footpad, while the left footpad received ovalbumin (100 μg in […] PBS) as a control. Both hind feet were measured before injection and at 24, 48, 72 and 96 hrs post injection using a monostat caliper. Footpad swelling was expressed as the average size increase (in millimeters) of the KLH-injected footpad compared to the control ovalbumin-injected footpad of each animal. The measurements were conducted in a blinded fashion on coded animals."}, "[5]": {"tested_on": "NOD-scid mice", "assay": "adoptive transfer of IDDM to NOD-scid mice", "type": "in vivo", "settings": "600 μg/day", "excerpt": "Ten to twenty million splenocytes from NOD mice with recent onset of IDDM were intravenously injected into recipient 6-week-old mice. […] (n=12 for both groups).\nA NOD strain congenic for the severe combined immunodeficiency (scid) mutation developed to study diabetogenesis in NOD mice was used in the adoptive transfer experiment. Neither insulitis nor diabetes is observed in the NOD-scid mice because they lack functional lymphocytes. This ensured that the T cells responsible for diabetes in recipient NOD-scid mice were derived from the diabetic donor NOD mice. Only female NOD mice were used since they incur a higher incidence of IDDM than males.\nThe control mice received a placebo pellet instead the GABA pellet. The mice were monitored for diabetes onset by testing their urine glucose levels with Tes-tape and blood glucose levels with a glucometer. The onset of IDDM is defined as two consecutive blood glucose readings of over 300 mg/dl."}, "[6]": {"tested_on": "lymph node T cell", "assay": "antigen-primed lymph node T cell proliferative recall response (3H-thymidine incorporation)", "type": "cell-based, NOD, Balb/c and AKR mice", "settings": "for immuno-inhibitory effect of GABA on co-incubation with the compound: different (also high) concentrations of GABA, GADp35; for immuno-inhibitory effect of GABA on co-incubation with the compound / effect on GABA-mediated inhibition of T cell proliferation: co-incubation; for effect on GABA-mediated inhibition of T cell proliferation: 1 μM-500 μM", "protocol": "NOD, Balb/c and AKR mice were immunized with an immunogenic foreign (HEL) or self (GAD) peptide in 50% CFA. […] Groups of 5 mice were tested in two independent experiments.\nLymph node mononuclear cells from GADp35 primed NOD mice were pretreated with different concentrations of muscimol or baclofen in vitro, and then challenged with 7 μM GADp35 to stimulate antigen specific T cell proliferation. The data are presented as the per cent ^3H-thymidine incorporation relative to control peptid-estimulated cells without muscimol or baclofen treatment. Lymph node mononuclear cells in medium alone served as negative controls. […] Groups of 5-6 mice were tested in two independent experiments.\nGroups of 5 mice were tested in three independent experiments.\nLymph node mononuclear cells from NOD mice which were immunized with GADp35 were cultured with bicuculline, RU5135 or picrotoxin. […] The data are expressed as the per cent ^3H-thymidine incorporation relative to control antigen-stimulated cells without any drug treatment. […] Groups of 5-6 mice were tested in three independent experiments.\nThree strains of mice with different MHC class II alleles were immunized with an immunogenic peptide from hen egg lysozyme (HEL). […] Mice were injected with 20 nM peptide in 50% complete Freund's adjuvant (CFA, Gibco) in their hind food-pad.\nGAD peptides were selected from an overlapping set of peptides which span the GAD molecule (Atkinson et al. (1994) J. Clin. Invest. 94:2125-2129). GAD65 peptide 35 (GADp35) contains a self-antigen determinant for NOD (H-2^NOD; Taconic Farms) and BALB/c (H-2^d) mice (Jackson Laboratory) and GAD peptide 25 (GADp25) contains a self-antigen determinant for AKR (H-2^k) mice (Jackson Laboratory; Kaufman et al. (1993) Nature 366:69-72). Following immunization with 20 nM of immunogenic GAD peptide in 50% complete Freund's adjuvant (CFA, Gibco), T cell proliferation was assayed as described above."}, "[7]": {"tested_on": "mononuclear splenic cells", "assay": "T cell response to PMA and ionomycin", "type": "cell-based, mice", "settings": "10 μM-10 mM"}, "[8]": {"settings": "21-day slow release GABA pellet"}, "[9]": {"settings": "NOD, Balb/c and AKR mice, 7 μM peptide, different concentrations of GABA"}}}
{"molecule": "NCCCC(=O)O", "note": "[GABA, γ-Aminobutyric acid]", "values": [{"measurement": "antigen-induced IL-2 secretion", "setting": "[1]", "result": "reduced in a dose-dependent manner"}, {"measurement": "CTLL-2 cell response to recombinant murine IL-2 on addition of compound", "setting": "[2]", "result": "unaffected"}, {"measurement": "impact on T cell survival", "setting": "[3]; in vitro culture", "result": "little impact on T cell survival"}, {"measurement": "T cell proliferation with the compound itself (without anti-CD3)", "setting": "[3]; without anti-CD3", "result": "failed to stimulate T cell proliferation"}, {"measurement": "signs of toxicity", "setting": "[4]; mice implanted with GABA-releasing pellets (600 μg GABA/day)", "result": "no obvious signs of toxicity"}, {"measurement": "less footpad swelling in response to KLH than placebo-treated mice", "setting": "[4]; pellet releasing 600 μg/day GABA, under the skin, 24-72 hour response period, p<0.005", "result": "30-50%"}, {"measurement": "diabetes incidence after adoptive transfer", "setting": "[5]; [8]", "result": "significantly reduced diabetes incidence"}, {"measurement": "onset of IDDM beginning at", "setting": "[5]; [8]", "result": 4, "unit": "weeks"}, {"measurement": "onset of IDDM in mice that developed it", "setting": "[5]; [8]", "result": "delayed onset"}, {"measurement": "onset of IDDM beginning at", "setting": "[5]; 60-day slow release GABA pellet", "result": 7, "unit": "weeks"}, {"measurement": "T cell recall proliferation to foreign antigen (HEL peptides)", "setting": "[6]; [9]", "result": "inhibit T cell proliferation to the immunogens in a dose-dependent manner"}, {"measurement": "T cell recall proliferation to self-antigen (GAD peptides)", "setting": "[6]; [9]", "result": "inhibit proliferative T cell responses to the injected antigen in all three strains of mice in a dose-dependent manner"}, {"measurement": "effect on T cell response to PMA and ionomycin", "setting": "[7]", "result": "did not significantly affect"}]}
{"molecule": "C[C@]12CC[C@@H](O)C[C@H]1CC[C@@H]1[C@@H]2C(=O)C[C@]2(C)N=C(N)C[C@@H]12", "note": "[RU5315]", "values": [{"measurement": "immuno-inhibitory effect of GABA on co-incubation with the compound", "setting": "[6]", "result": "greatly reduced"}]}
{"molecule": "NCC(CC(=O)O)c1ccc(Cl)cc1", "note": "(centres unmarked) [baclofen]", "values": [{"measurement": "effect on T cell proliferation", "setting": "[6]; 10 μM-10 mM", "result": "little effect"}, {"measurement": "interference with the immuno-suppressive action of muscimol", "setting": "[6]; 10 μM-10 mM, with muscimol", "result": "did not interfere"}]}
{"molecule": "N[C@@H](CCC(=O)O)C(=O)O", "note": "[glutamic acid]", "values": [{"measurement": "effect on T cell proliferative responses, alone or co-incubated with GABA", "setting": "[6]; 10 μM-10 mM", "result": "little effect"}]}
{"molecule": "NCc1cc(=O)[nH]o1", "note": "[muscimol]", "values": [{"measurement": "anti-CD3 induced T cell proliferation", "setting": "[3]; different concentrations", "result": "inhibit in a dose-dependent manner"}, {"measurement": "reduction of antigen primed T cell responses", "setting": "[6]; 300 μM, GADp35 primed NOD mice", "result": "approximately 40%"}, {"measurement": "antigen-induced T cell proliferation", "setting": "[6]; different concentrations, 7 μM GADp35", "result": "inhibit in a dose-dependent manner"}]}
{"molecule": "O=C(O)C1CCCNC1", "note": "(centres unmarked) [nipecotic acid]", "values": [{"measurement": "effect on GABA-mediated inhibition of T cell proliferation", "setting": "[6]", "result": "did not significantly affect"}]}
{"molecule": "CCCC(C)C1(CC)C(=O)NC(=O)NC1=O", "note": "(centres unmarked) [pentobarbital]", "values": [{"measurement": "effect on GABA inhibition of T cell responses", "setting": "[6]; 3 μM with different concentrations of GABA, 7 μM GADp35, 96 hours", "result": "potentiated the actions of GABA"}, {"measurement": "impact of compound without GABA on antigen-primed T cell proliferation", "setting": "[6]; 3 μM, without GABA", "result": "little impact"}]}
{"molecule": "NCCC(=O)O", "note": "[β-alanine]", "values": [{"measurement": "effect on T cell proliferative responses, alone or co-incubated with GABA", "setting": "[6]; 10 μM-10 mM", "result": "little effect"}]}
{"molecule": "C=CC(N)CCC(=O)O", "note": "(centres unmarked) [γ-vinyl-GABA]", "values": [{"measurement": "effect on GABA-mediated inhibition of T cell proliferation", "setting": "[6]", "result": "did not significantly affect"}]}
{"molecule": "picrotoxin", "values": [{"measurement": "immuno-inhibitory effect of GABA on co-incubation with the compound", "setting": "[6]", "result": "almost abolished"}]}
